The structures appear in SMILES notation. Starred links: 1 amine or outer side, 2 acyl side, 3 side chain; linkers in the order of their positions; H or OH if unused. Positions of bridges follow the written chain, without caps; N, C: chain ends. Non-standard residues stand in square brackets, D forms with d. Residues, ends and D or L forms follow the SMILES beside them. Groups on a side chain read outwards from the residue. *: point of attachment. Trp(1-CH2COOH) = N[C@@H](Cc1cn(CC(=O)O)c2ccccc12)C(=O)O; NH(benzothiophen-5-yl) = c1cc2cc(N*)ccc2s1; X79 = CCn1c2ccccc2c2cc(NC(=S)*)ccc21; NH(1-naphthyl) = c1ccc2c(N*)cccc2c1; X1 = S=C(Nc1ccc2c(c1)Cc1ccccc1-2)*; Hyp = O=C(O)[C@@H]1C[C@@H](O)CN1; X32 = c1ccc2c(c1)Cc1cc(N*)ccc1-2; X34 = O=C(c1c2ccccc2cc2ccccc12)*; NMeNle = CCCC[C@H](NC)C(=O)O; X7 = S=C(Nc1ccc2cc[nH]c2c1)*; X5 = S=C(Nc1cccc2ccccc12)*; NMeA = CN[C@@H](C)C(=O)O; βNA = c1ccc2cc(N*)ccc2c1; Dab = NCC[C@H](N)C(=O)O; Dap = NC[C@H](N)C(=O)O; CO = O=C([*:1])[*:2]

In US20220389061A1, “IMMUNOMODULATORS” (priority 2019, published 2022) one finds IC50 data, which are given here for 13 molecules.

T1 sequence (Q9NZQ7 18-239): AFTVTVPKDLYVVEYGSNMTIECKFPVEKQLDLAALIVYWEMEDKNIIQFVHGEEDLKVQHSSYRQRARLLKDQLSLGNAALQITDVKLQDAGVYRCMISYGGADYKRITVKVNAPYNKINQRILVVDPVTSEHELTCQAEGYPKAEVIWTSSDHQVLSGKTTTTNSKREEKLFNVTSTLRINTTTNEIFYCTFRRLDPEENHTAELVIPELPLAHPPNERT

One assay addresses T1, PD-1/PD-L1 (Homo sapiens, UniProt Q9NZQ7).
T1 construct: TVMV protease site linker (C); made in house; host or cells: HEK293T cells
The assay is described as follows: PD-1/PD-L1 Homogenous Time-Resolved Fluorescence (HTRF) binding assay.
Conditions: not given
In outline:
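Compounds preincubated 15 min with PD-L1-His (10 nM final), then PD-1-Ig (20 nM final) added for 15 min in dPBS with 0.1% BSA, 0.05% Tween-20. Detection by Eu-cryptate anti-Ig (1 nM) and APC anti-His (20 nM) HTRF.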
The molecule `CCCC[C@H]1C(=O)N(C)[C@@H](CCCC)C(=O)N[C@@H](CC(C)C)C(=O)N[C@H](C(=O)NCC(N)=O)CSCC(=O)N[C@@H](Cc2ccc(O)cc2)C(=O)N(C)[C@@H](C)C(=O)N[C@@H](CC(N)=O)C(=O)N2CCC[C@H]2C(=O)N[C@@H](CNC(=O)Nc2ccc3c(c2)Cc2ccccc2-3)C(=O)N[C@@H](CC(C)C)C(=O)N2C[C@H](O)C[C@H]2C(=O)N[C@@H](Cc2c[nH]c3ccccc23)C(=O)N[C@@H](CCNC(=O)Nc2ccc3c(c2)Cc2ccccc2-3)C(=O)N[C@@H](Cc2cn(CC(=O)O)c3ccccc23)C(=O)N1C` [Example 2008] ({CH2CO}-Y[NMeA]NP[Dap]([CO-X32])L[Hyp]W[Dab]([CO-X32])[Trp(1-CH2COOH)][NMeNle][NMeNle]LCG-NH2; thioether N-14) registered a concentration for half-maximal inhibition (IC50) of 46.7 nM.

For `CCCC[C@H]1C(=O)N(C)[C@@H](CCCC)C(=O)N[C@@H](CC(C)C)C(=O)N[C@H](C(=O)NCC(N)=O)CSCC(=O)N[C@@H](Cc2ccc(O)cc2)C(=O)N(C)[C@@H](C)C(=O)N[C@@H](CC(N)=O)C(=O)N2CCC[C@H]2C(=O)N[C@@H](CNC(=O)Nc2ccc3c(c2)Cc2ccccc2-3)C(=O)N[C@@H](CC(C)C)C(=O)N2C[C@H](O)C[C@H]2C(=O)N[C@@H](Cc2c[nH]c3ccccc23)C(=O)N[C@@H](CCN)C(=O)N[C@@H](Cc2cn(CC(=O)O)c3ccccc23)C(=O)N1C` [Example 2009] ({CH2CO}-Y[NMeA]NP[Dap]([CO-X32])L[Hyp]W[Dab][Trp(1-CH2COOH)][NMeNle][NMeNle]LCG-NH2; thioether N-14), the IC50 is 3.6 nM.

Consider `CCCC[C@H]1C(=O)N(C)[C@@H](CCCC)C(=O)N[C@@H](CC(C)C)C(=O)N[C@H](C(=O)NCC(N)=O)CSCC(=O)N[C@@H](Cc2ccc(O)cc2)C(=O)N(C)[C@@H](C)C(=O)N[C@@H](CC(N)=O)C(=O)N2CCC[C@H]2C(=O)N[C@@H](CNC(=O)Nc2ccc3ccccc3c2)C(=O)N[C@@H](CC(C)C)C(=O)N2C[C@H](O)C[C@H]2C(=O)N[C@@H](Cc2c[nH]c3ccccc23)C(=O)N[C@@H](CCNC(=O)Nc2ccc3ccccc3c2)C(=O)N[C@@H](Cc2cn(CC(=O)O)c3ccccc23)C(=O)N1C` [Example 3001] ({CH2CO}-Y[NMeA]NP[Dap]([CO-βNA])L[Hyp]W[Dab]([CO-βNA])[Trp(1-CH2COOH)][NMeNle][NMeNle]LCG-NH2; thioether N-14), for which the IC50 was found to be 7.3 nM.

`CCCC[C@H]1C(=O)N(C)[C@@H](CCCC)C(=O)N[C@@H](CC(C)C)C(=O)N[C@H](C(=O)NCC(N)=O)CSCC(=O)N[C@@H](Cc2ccc(O)cc2)C(=O)N(C)[C@@H](C)C(=O)N[C@@H](CC(N)=O)C(=O)N2CCC[C@H]2C(=O)N[C@@H](CNC(=O)Nc2cccc3ccccc23)C(=O)N[C@@H](CC(C)C)C(=O)N2C[C@H](O)C[C@H]2C(=O)N[C@@H](Cc2c[nH]c3ccccc23)C(=O)N[C@@H](CCNC(=O)Nc2cccc3ccccc23)C(=O)N[C@@H](Cc2cn(CC(=O)O)c3ccccc23)C(=O)N1C` [Example 3005] ({CH2CO}-Y[NMeA]NP[Dap]([CO-NH(1-naphthyl)])L[Hyp]W[Dab]([CO-NH(1-naphthyl)])[Trp(1-CH2COOH)][NMeNle][NMeNle]LCG-NH2; thioether N-14) had an IC50 of 3.2 nM.

The assay is the same for the next values; noted with them: PD-L1-His 10 nM pre-incubated with inhibitor, PD-1-Ig 20 nM; read-out: HTRF IC50.
As to `CCCC[C@H]1C(=O)N(C)[C@@H](CCCC)C(=O)N[C@@H](CC(C)C)C(=O)N[C@H](C(=O)NCC(N)=O)CSCC(=O)N[C@@H](Cc2ccc(O)cc2)C(=O)N(C)[C@@H](C)C(=O)N[C@@H](CC(N)=O)C(=O)N2CCC[C@H]2C(=O)N[C@@H](CNC(=S)Nc2ccc3c(c2)Cc2ccccc2-3)C(=O)N[C@@H](CC(C)C)C(=O)N2C[C@H](O)C[C@H]2C(=O)N[C@@H](Cc2c[nH]c3ccccc23)C(=O)N[C@@H](CCN)C(=O)N[C@@H](Cc2cn(CC(=O)O)c3ccccc23)C(=O)N1C` [Example 2010] ({CH2CO}-Y[NMeA]NP[Dap](X1)L[Hyp]W[Dab][Trp(1-CH2COOH)][NMeNle][NMeNle]LCG-NH2; thioether N-14), the IC50 was 3.7 nM.

On to `CCCC[C@H]1C(=O)N(C)[C@@H](CCCC)C(=O)N[C@@H](CC(C)C)C(=O)N[C@H](C(=O)NCC(N)=O)CSCC(=O)N[C@@H](Cc2ccc(O)cc2)C(=O)N(C)[C@@H](C)C(=O)N[C@@H](CC(N)=O)C(=O)N2CCC[C@H]2C(=O)N[C@@H](CNC(=O)c2c3ccccc3cc3ccccc23)C(=O)N[C@@H](CC(C)C)C(=O)N2C[C@H](O)C[C@H]2C(=O)N[C@@H](Cc2c[nH]c3ccccc23)C(=O)N[C@@H](CCNC(=O)c2c3ccccc3cc3ccccc23)C(=O)N[C@@H](Cc2cn(CC(=O)O)c3ccccc23)C(=O)N1C` [Example 2011] ({CH2CO}-Y[NMeA]NP[Dap](X34)L[Hyp]W[Dab](X34)[Trp(1-CH2COOH)][NMeNle][NMeNle]LCG-NH2; thioether N-14), for which the IC50 came out at 4.7 nM.

Turning to `CCCC[C@H]1C(=O)N(C)[C@@H](CCCC)C(=O)N[C@@H](CC(C)C)C(=O)N[C@H](C(=O)NCC(N)=O)CSCC(=O)N[C@@H](Cc2ccc(O)cc2)C(=O)N(C)[C@@H](C)C(=O)N[C@@H](CC(N)=O)C(=O)N2CCC[C@H]2C(=O)N[C@@H](CNC(=S)Nc2ccc3c(c2)Cc2ccccc2-3)C(=O)N[C@@H](CC(C)C)C(=O)N2C[C@H](O)C[C@H]2C(=O)N[C@@H](Cc2c[nH]c3ccccc23)C(=O)N[C@@H](CCNC(=S)Nc2ccc3c(c2)Cc2ccccc2-3)C(=O)N[C@@H](Cc2cn(CC(=O)O)c3ccccc23)C(=O)N1C` [Example 2012] ({CH2CO}-Y[NMeA]NP[Dap](X1)L[Hyp]W[Dab](X1)[Trp(1-CH2COOH)][NMeNle][NMeNle]LCG-NH2; thioether N-14), the IC50 worked out at 15.2 nM.

Consider `CCCC[C@H]1C(=O)N(C)[C@@H](CCCC)C(=O)N[C@@H](CC(C)C)C(=O)N[C@H](C(=O)NCC(N)=O)CSCC(=O)N[C@@H](Cc2ccc(O)cc2)C(=O)N(C)[C@@H](C)C(=O)N[C@@H](CC(N)=O)C(=O)N2CCC[C@H]2C(=O)N[C@@H](CNC(=S)Nc2ccc3c(c2)c2ccccc2n3CC)C(=O)N[C@@H](CC(C)C)C(=O)N2C[C@H](O)C[C@H]2C(=O)N[C@@H](Cc2c[nH]c3ccccc23)C(=O)N[C@@H](CCNC(=S)Nc2ccc3c(c2)c2ccccc2n3CC)C(=O)N[C@@H](Cc2cn(CC(=O)O)c3ccccc23)C(=O)N1C` [Example 2013] ({CH2CO}-Y[NMeA]NP[Dap](X79)L[Hyp]W[Dab](X79)[Trp(1-CH2COOH)][NMeNle][NMeNle]LCG-NH2; thioether N-14), for which the IC50 worked out at 8.1 nM.

For `CCCC[C@H]1C(=O)N(C)[C@@H](CCCC)C(=O)N[C@@H](CC(C)C)C(=O)N[C@H](C(=O)NCC(N)=O)CSCC(=O)N[C@@H](Cc2ccc(O)cc2)C(=O)N(C)[C@@H](C)C(=O)N[C@@H](CC(N)=O)C(=O)N2CCC[C@H]2C(=O)N[C@@H](CNC(=S)Nc2ccc3c(c2)c2ccccc2n3CC)C(=O)N[C@@H](CC(C)C)C(=O)N2C[C@H](O)C[C@H]2C(=O)N[C@@H](Cc2c[nH]c3ccccc23)C(=O)N[C@@H](CCN)C(=O)N[C@@H](Cc2cn(CC(=O)O)c3ccccc23)C(=O)N1C` [Example 2014] ({CH2CO}-Y[NMeA]NP[Dap](X79)L[Hyp]W[Dab][Trp(1-CH2COOH)][NMeNle][NMeNle]LCG-NH2; thioether N-14), the IC50 is 3.8 nM.

For `CCCC[C@H]1C(=O)N(C)[C@@H](CCCC)C(=O)N[C@@H](CC(C)C)C(=O)N[C@H](C(=O)NCC(N)=O)CSCC(=O)N[C@@H](Cc2ccc(O)cc2)C(=O)N(C)[C@@H](C)C(=O)N[C@@H](CC(N)=O)C(=O)N2CCC[C@H]2C(=O)N[C@@H](CNC(=O)c2c3ccccc3cc3ccccc23)C(=O)N[C@@H](CC(C)C)C(=O)N2C[C@H](O)C[C@H]2C(=O)N[C@@H](Cc2c[nH]c3ccccc23)C(=O)N[C@@H](CCN)C(=O)N[C@@H](Cc2cn(CC(=O)O)c3ccccc23)C(=O)N1C` [Example 2015] ({CH2CO}-Y[NMeA]NP[Dap](X34)L[Hyp]W[Dab][Trp(1-CH2COOH)][NMeNle][NMeNle]LCG-NH2; thioether N-14), the 50% inhibitory concentration (IC50) was found to be 3.2 nM.

With `CCCC[C@H]1C(=O)N(C)[C@@H](CCCC)C(=O)N[C@@H](CC(C)C)C(=O)N[C@H](C(=O)NCC(N)=O)CSCC(=O)N[C@@H](Cc2ccc(O)cc2)C(=O)N(C)[C@@H](C)C(=O)N[C@@H](CC(N)=O)C(=O)N2CCC[C@H]2C(=O)N[C@@H](CNC(=S)Nc2ccc3cc[nH]c3c2)C(=O)N[C@@H](CC(C)C)C(=O)N2C[C@H](O)C[C@H]2C(=O)N[C@@H](Cc2c[nH]c3ccccc23)C(=O)N[C@@H](CCNC(=S)Nc2ccc3cc[nH]c3c2)C(=O)N[C@@H](Cc2cn(CC(=O)O)c3ccccc23)C(=O)N1C` [Example 3002] ({CH2CO}-Y[NMeA]NP[Dap](X7)L[Hyp]W[Dab](X7)[Trp(1-CH2COOH)][NMeNle][NMeNle]LCG-NH2; thioether N-14), the IC50 is 4.3 nM.

For the molecule `CCCC[C@H]1C(=O)N(C)[C@@H](CCCC)C(=O)N[C@@H](CC(C)C)C(=O)N[C@H](C(=O)NCC(N)=O)CSCC(=O)N[C@@H](Cc2ccc(O)cc2)C(=O)N(C)[C@@H](C)C(=O)N[C@@H](CC(N)=O)C(=O)N2CCC[C@H]2C(=O)N[C@@H](CNC(=O)Nc2ccc3sccc3c2)C(=O)N[C@@H](CC(C)C)C(=O)N2C[C@H](O)C[C@H]2C(=O)N[C@@H](Cc2c[nH]c3ccccc23)C(=O)N[C@@H](CCNC(=O)Nc2ccc3sccc3c2)C(=O)N[C@@H](Cc2cn(CC(=O)O)c3ccccc23)C(=O)N1C` [Example 3003] ({CH2CO}-Y[NMeA]NP[Dap]([CO-NH(benzothiophen-5-yl)])L[Hyp]W[Dab]([CO-NH(benzothiophen-5-yl)])[Trp(1-CH2COOH)][NMeNle][NMeNle]LCG-NH2; thioether N-14), the concentration for half-maximal inhibition (IC50) is 2.3 nM.

As to `CCCC[C@H]1C(=O)N(C)[C@@H](CCCC)C(=O)N[C@@H](CC(C)C)C(=O)N[C@H](C(=O)NCC(N)=O)CSCC(=O)N[C@@H](Cc2ccc(O)cc2)C(=O)N(C)[C@@H](C)C(=O)N[C@@H](CC(N)=O)C(=O)N2CCC[C@H]2C(=O)N[C@@H](CNC(=S)Nc2cccc3ccccc23)C(=O)N[C@@H](CC(C)C)C(=O)N2C[C@H](O)C[C@H]2C(=O)N[C@@H](Cc2c[nH]c3ccccc23)C(=O)N[C@@H](CCNC(=S)Nc2cccc3ccccc23)C(=O)N[C@@H](Cc2cn(CC(=O)O)c3ccccc23)C(=O)N1C` [Example 3006] ({CH2CO}-Y[NMeA]NP[Dap](X5)L[Hyp]W[Dab](X5)[Trp(1-CH2COOH)][NMeNle][NMeNle]LCG-NH2; thioether N-14), the IC50 came to 2.8 nM.
